Reference: PMC7794379, “Thioesterase-mediated side chain transesterification generates potent Gq signaling inhibitor FR900359” (Nature Communications, 2021)
*1 amine or outer side, *2 acyl side, *3 side chain or, on linkers, in order; H or OH if unused. Where a SMILES comes first, the peptide text is derived from it. Bridges are numbered along the chain shown (N, C = ends). [ ]: non-standard residue; d: D form. The star is where a group is joined. Leu(3R-OH,Nα-propionyl) = CCC(=O)N[C@H](C(=O)*)[C@H](O)C(C)C; X1 = CC(C)[C@@H](O[*:3])[C@H](N[*:1])C(=O)[*:2]; Leu(3R-OH) = CC(C)[C@@H](O)[C@H](N)C(=O)O; X2 = CCCC(=O)N[C@H](C(=O)*)[C@H](O)C(C)C; NMeT = CN[C@H](C(=O)O)[C@@H](C)O; dPhLac = O=C(O)[C@H](O)Cc1ccccc1; NMeA = CN[C@@H](C)C(=O)O; NMeDha = C=C(NC)C(=O)O

How the values were obtained:
[1] = target: T1, wild type Gαq in HEK Gαq/Gα11-null cells (Homo sapiens, UniProt P50148); experiment: DMR (dynamic mass redistribution) inhibition of carbachol (CCh 100 µM) response in Gαq-transfected HEK293 Gαq/Gα11-null cells; type: cell-based; settings: compounds added 1 h before, 37 °C, mean ± s.e.m. of n independent replicates in technical triplicates (FR n=11, FR-Core n=4, FR-5 n=4), read-out: pIC50 (Gαq inhibition, DMR) (converted)
T1 construct: expressed in transfected cells; host or cells: CRISPR/Cas9-edited HEK293 Gαq/Gα11-null cells
T1 sequence (P50148 1-359): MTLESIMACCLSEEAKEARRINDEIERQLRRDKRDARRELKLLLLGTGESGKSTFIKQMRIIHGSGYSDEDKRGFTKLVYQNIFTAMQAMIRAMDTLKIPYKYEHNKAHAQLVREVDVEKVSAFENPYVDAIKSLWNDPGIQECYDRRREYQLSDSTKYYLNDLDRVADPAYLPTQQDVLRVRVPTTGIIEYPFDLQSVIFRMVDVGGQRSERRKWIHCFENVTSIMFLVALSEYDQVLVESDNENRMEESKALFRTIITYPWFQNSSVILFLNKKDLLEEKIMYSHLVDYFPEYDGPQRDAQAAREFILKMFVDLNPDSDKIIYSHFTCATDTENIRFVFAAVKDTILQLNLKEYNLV
Procedure: Label-free dynamic mass redistribution (DMR) assay
Cell culture materials were purchased from Invitrogen (Carlsbad, CA, USA). Generation of genetically engineered HEK293 cells using CRISPR/Cas9 technology to knockout the subunits of Gαq and Gα11 (Gαq/Gα11-null cells) is described elsewhere. Cells were maintained in Dulbecco’s modified Eagle’s medium (DMEM) supplemented with 10% (v/v) fetal calf serum (FCS, PAN biotech, Germany), penicillin (100 units/mL), and streptomycin (0.1 mg/mL), and kept in a humidified atmosphere with 5% CO2 at 37 °C. All cell lines were screened by PCR on a monthly basis for mycoplasma contamination and were tested negative. DMR measurements were performed analogous to prior studies[39],[40] using the Epic DMR reader (Corning, NY, USA) together with the Cybi-SELMA semi-automated electronic pipetting system (Analytik Jena AG, Jena, Germany). 24 h after transfection with the G protein αq subunit, HEK293 cells were counted and seeded on 384-well fibronectin-coated biosensor plates at a density of 17,000 cells per well. On the next day, cells were washed twice with Hanks’ buffered salt solution containing 20 mM HEPES (HBSS + HEPES) and incubated for 1 h at 37 °C in the EPIC reader. 1, 2, 3 or 7 in HBSS + HEPES were added 1 h before the measurement. The sensor plate was scanned to record a baseline optical signature (no change in basal DMR), and after the addition of compounds, DMR alterations were monitored for 3000 s at 37 °C. All data were analyzed using GraphPad Prism 8.0.0 (GraphPad Inc, La Jolla, CA, USA). Quantification of DMR signals was performed by calculation of the maximum responses. […]
Concentration-effect curves in Fig. 4a–c were normalized by setting each experimental maximal effect as 100% response. All data are expressed as mean + or ± standard error of the mean (s.e.m.) of at least three independent experiments performed in technical triplicates. […]
Supplementary Table 6: Quantification of FR, FR-Core and FR-5 inhibitory activities at wild type Gαq in HEK Gαq/Gα11-null cells. […]

[2] = target: T2, Gαq proteins (human platelet membrane preparations) (Homo sapiens, UniProt P50148); experiment: Competition binding vs [³H]PSB-15900 at human platelet membrane preparations; settings: vs 5 nM [³H]PSB-15900; 50 µg protein; 50 mM Tris pH 7.4; 37 °C, 1 h; read-out: pIC50 (competition binding) (converted)
T2 construct: human platelet membrane preparations that natively express Gαq proteins; from tissue; host or cells: human platelet membrane preparation
T2 sequence (P50148 1-359): T1 sequence (P50148 1-359)
Procedure: Competition binding assay
Competition binding assays of 1 and 2 were conducted versus the radiolabeled FR derivative [³H]PSB-15900 utilizing human platelet membrane preparations that natively express Gαq proteins. The experiments were performed in 50 mM Tris, pH=7.4, in a final assay volume of 200 µl. Each assay tube contained 50 µl [³H]PSB-15900 solution in the buffer (final concentration: 5 nM), 50 µl of human platelet membrane preparation in buffer (50 µg of protein), 95 µl of buffer, and 5 µl of 1 or 2 solution, respectively, in varying concentrations dissolved in DMSO. Non-specific-binding was determined in the presence of 5 µM FR dissolved in DMSO. Incubation was performed at 37 °C for 1 h with gentle shaking and was started by the addition of the membrane preparation. The incubation was terminated by rapid filtration through GF/C glass fiber filters using a Brandel 24-well-harvester. Filters were dried, punched out, transferred to scintillation vials, and incubated for at least 6 h in scintillation cocktail (2.5 ml ProSafe FC+®, Meridian Biotechnologies Ltd, UK) prior to measurement in a liquid scintillation counter at an efficiency of 53%. Data were evaluated using GraphPad Prism 7 (GraphPad Inc., San Diego, CA, USA), and IC50 values were determined by the One site – Fit logIC50-equation.

[3] = test system: Riptortus pedestris; experiment: Oral feeding toxicity, survival rate of first instar stinkbug nymphs; type: in vivo; settings: 40 µM, nine days
Procedure: Feeding and effect determination of 1 and 2 on insects
A small cotton pad soaked with 500 µl of 1 or 2-containing water was served to first instar nymphs of the stinkbug R. pedestris for oral intake. For feeding, 1 and 2 were each dissolved in 100% MeOH and diluted with water to concentrations of 0.2, 0.04, and 0.02 µg/µl. Distilled water containing 2% MeOH was used as control. Each experiment included 20 stinkbug individuals. Insects were reared in a moisture chamber at 25 °C under a long day regimen (16 h light, 8 h dark), supplied with dried soybean seeds. The 1 or 2-containing water was exchanged every 3 d, and the survival rate was monitored every day at the same time for 9 d.
Please select the one below that is the best fit for your research. If you are not sure, read the appropriate sections before making your selection. […]
Sample size Sample size: 7 groups of each 20 animals were treated with control (1 group) and two different compounds at 3 different concentrations (6 groups). […] Sample size (size of group) was determined based on standard laboratory practice, and the available amount of the compounds for the experiments. […]
We require information from authors about some types of materials, experimental systems and methods used in many studies. […] If you are not sure if a list item applies to your research, read the appropriate section before selecting a response. […]

Structure (SMILES)	IC50 [1] [nM]	IC50 [2] [nM]	lethality in words, lower concentration [3]
C=C1C(=O)N[C@@H](C)C(=O)N(C)[C@@H](C)C(=O)N[C@@H]([C@H](OC(=O)[C@@H](NC(=O)CCC)[C@H](O)C(C)C)C(C)C)C(=O)N(C)[C@@H]([C@@H](C)OC)C(=O)O[C@H](C(C)C)[C@H](NC(C)=O)C(=O)O[C@H](Cc2ccccc2)C(=O)N1C [FR-5] (Ac-[X1][dPhLac][NMeDha]A[NMeA][X1](X2)[NMeT](Me); ester 1-C)	3160	–	–
C=C1C(=O)N[C@@H](C)C(=O)N(C)[C@@H](C)C(=O)N[C@@H]([C@H](O)C(C)C)C(=O)N(C)[C@@H]([C@@H](C)OC)C(=O)O[C@H](C(C)C)[C@H](NC(C)=O)C(=O)O[C@H](Cc2ccccc2)C(=O)N1C [FR-Core] (Ac-[X1][dPhLac][NMeDha]A[NMeA][Leu(3R-OH)][NMeT](Me); ester 1-C)	7410	2750	–
C=C1C(=O)N[C@@H](C)C(=O)N(C)[C@@H](C)C(=O)N[C@@H]([C@H](OC(=O)[C@@H](NC(=O)CC)[C@H](O)C(C)C)C(C)C)C(=O)N(C)[C@@H]([C@@H](C)OC)C(=O)O[C@H](C(C)C)[C@H](NC(C)=O)C(=O)O[C@H](Cc2ccccc2)C(=O)N1C [FR] (Ac-[X1][dPhLac][NMeDha]A[NMeA][X1](Leu(3R-OH,Nα-propionyl))[NMeT](Me); ester 1-C)	457	13.2	lethal effects
